The target of assay [1] is T1, hAMY3 receptor (Homo sapiens, UniProt O60896+P30988).
T1 sequence (P30988 25-474): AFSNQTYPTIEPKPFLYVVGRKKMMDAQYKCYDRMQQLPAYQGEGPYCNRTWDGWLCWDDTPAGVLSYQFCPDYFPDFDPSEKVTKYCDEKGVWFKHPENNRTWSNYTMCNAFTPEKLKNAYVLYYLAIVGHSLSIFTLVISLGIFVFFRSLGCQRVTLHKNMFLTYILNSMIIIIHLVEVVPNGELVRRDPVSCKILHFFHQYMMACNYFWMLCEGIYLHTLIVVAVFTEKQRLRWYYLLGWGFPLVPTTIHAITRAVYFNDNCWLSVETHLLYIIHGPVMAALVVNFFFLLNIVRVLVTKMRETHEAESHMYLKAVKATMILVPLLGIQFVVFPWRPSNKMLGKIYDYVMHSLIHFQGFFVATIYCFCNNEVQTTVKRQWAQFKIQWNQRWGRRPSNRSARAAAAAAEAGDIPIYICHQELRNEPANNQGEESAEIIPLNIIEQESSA
T1 sequence (O60896 24-148 partner): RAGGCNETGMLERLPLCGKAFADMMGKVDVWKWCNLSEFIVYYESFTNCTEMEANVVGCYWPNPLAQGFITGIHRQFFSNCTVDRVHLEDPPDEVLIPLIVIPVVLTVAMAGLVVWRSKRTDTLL
Kind of assay: cAMP assay for in vitro receptor activation, hAMY3-R. It is filed as cell-based. The conditions noted are these: cAMP assay, hAMY3 receptor; read-out: hAMY3R EC50. The essentials: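 Monoclonal cell line stably overexpressing hAMY3 receptor, plated in DPBS with 0.05% casein and 0.5 mM IBMX, was stimulated with graded compound doses for 30 min at room temperature. cAMP accumulation was read by time-resolved FRET one hour after adding detection reagents.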

The target of assay [2] is hAM1 receptor (Homo sapiens, UniProt O60895+Q16602). Kind of assay: cAMP assay for in vitro receptor activation, hAM1-R. The class given is cell-based. The conditions noted are these: cAMP assay, hAM1 receptor; read-out: hAM1R EC50. Put shortly: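 cAMP accumulation was measured in a monoclonal cell line stably overexpressing the hAM1 receptor. Frozen aliquots were thawed and plated at 8000 cells/well in DPBS containing 0.05% casein and 0.5 mM IBMX.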

Each structure is given as a SMILES string. Numbered stars: 1 amine (or outer) side, 2 acyl side, 3 side chain; on linkers, the order of the positions; unused ones are H or OH. Bridge positions count the residues as written; N and C are the ends. Square brackets hold non-standard residues; d marks the D form. Side chains are listed from the residue outwards. Peptide text beside a SMILES is read from it. * marks the point of attachment. C20 diacid = O=C(O)CCCCCCCCCCCCCCCCCCC(=O)*; γGlu = O=C(O)[C@H](CCC(=O)[*:2])N[*:1]; Hyp = O=C(O)[C@@H]1C[C@@H](O)CN1; AEEA = NCCOCCOCC(=O)O

For six compounds, EC50 results are on record in US12139520B2 (priority 2020, dated 2024).

Chain of hAM1 receptor (Q16602 23-461): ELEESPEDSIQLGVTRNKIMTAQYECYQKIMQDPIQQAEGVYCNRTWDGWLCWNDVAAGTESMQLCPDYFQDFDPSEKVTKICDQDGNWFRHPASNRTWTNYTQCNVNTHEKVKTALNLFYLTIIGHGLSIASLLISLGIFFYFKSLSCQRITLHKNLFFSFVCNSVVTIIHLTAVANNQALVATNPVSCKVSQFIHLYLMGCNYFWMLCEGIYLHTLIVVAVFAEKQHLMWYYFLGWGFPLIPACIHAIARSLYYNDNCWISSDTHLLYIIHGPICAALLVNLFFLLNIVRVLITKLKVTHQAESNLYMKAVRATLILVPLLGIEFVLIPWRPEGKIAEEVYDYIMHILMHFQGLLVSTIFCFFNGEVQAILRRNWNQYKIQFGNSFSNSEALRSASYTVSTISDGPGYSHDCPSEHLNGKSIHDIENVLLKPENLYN
Chain of hAM1 receptor (O60895 43-175 partner): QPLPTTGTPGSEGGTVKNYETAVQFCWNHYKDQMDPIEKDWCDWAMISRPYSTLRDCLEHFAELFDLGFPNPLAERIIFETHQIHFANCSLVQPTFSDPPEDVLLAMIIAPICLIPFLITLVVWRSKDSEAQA

One may read the EC50 as the concentration needed to bring the measured effect to its halfway point. For `CC[C@H](C)[C@H](NC(=O)[C@H](CCC(N)=O)NC(=O)[C@H](Cc1c[nH]cn1)NC(=O)[C@H](C)NC(=O)[C@H](CC(C)C)NC(=O)[C@H](CCCNC(=N)N)NC(=O)[C@H](CCC(N)=O)NC(=O)[C@@H](NC(=O)[C@@H](NC(=O)[C@@H]1CSSC[C@H](NC(=O)[C@H](CCCCN)NC(=O)CC[C@H](NC(=O)CCCCCCCCCCCCCCCCCCC(=O)O)C(=O)O)C(=O)N[C@@H](CC(N)=O)C(=O)N[C@@H]([C@@H](C)O)C(=O)N[C@@H](C)C(=O)N[C@@H]([C@@H](C)O)C(=O)N1)[C@@H](C)O)C(C)C)C(=O)N[C@@H](Cc1ccc(O)cc1)C(=O)N[C@@H](CCC(N)=O)C(=O)N[C@@H](Cc1ccccc1)C(=O)N[C@H](C(=O)N[C@@H](CC(=O)O)C(=O)N[C@@H](CCCCN)C(=O)N[C@@H](CC(=O)O)C(=O)N[C@@H](CCCCN)C(=O)N[C@@H](CC(=O)O)C(=O)N[C@@H](CC(N)=O)C(=O)N[C@H](C(=O)N[C@@H](C)C(=O)N1CCC[C@H]1C(=O)N1CCC[C@H]1C(=O)N[C@H](C(=O)N[C@@H](CC(N)=O)C(=O)N[C@H](C(=O)NCC(=O)N[C@@H](CO)C(=O)N[C@@H](CC(N)=O)C(=O)NCC(=O)N1C[C@H](O)C[C@H]1C(N)=O)C(C)C)[C@@H](C)O)C(C)C)[C@@H](C)O` [compound 77] ({C20 diacid-γGlu}-KCNTATCTVQRLAHQIYQFTDKDKDNVAPPTNVGSNG[Hyp]-NH2; disulfide 2-7), the EC50 in assay [1] was 0.014 nM; in assay [2] it was more than 5000 nM.
For `CC[C@H](C)[C@H](NC(=O)[C@H](CCC(N)=O)NC(=O)[C@H](Cc1c[nH]cn1)NC(=O)[C@H](C)NC(=O)[C@H](CC(C)C)NC(=O)[C@H](CCCNC(=N)N)NC(=O)[C@H](CCC(N)=O)NC(=O)[C@@H](NC(=O)[C@@H](NC(=O)[C@@H]1CSSC[C@H](NC(=O)[C@H](CCCCN)NC(=O)CC[C@H](NC(=O)CCCCCCCCCCCCCCCCCCC(=O)O)C(=O)O)C(=O)N[C@@H](CC(N)=O)C(=O)N[C@@H]([C@@H](C)O)C(=O)N[C@@H](C)C(=O)N[C@@H]([C@@H](C)O)C(=O)N1)[C@@H](C)O)C(C)C)C(=O)N[C@@H](C)C(=O)N[C@@H](CCC(N)=O)C(=O)N[C@@H](Cc1ccccc1)C(=O)N[C@@H](CO)C(=O)N[C@@H](CC(=O)O)C(=O)N[C@@H](CCCCN)C(=O)N[C@@H](CC(=O)O)C(=O)N[C@@H](CCCCN)C(=O)N[C@@H](CC(=O)O)C(=O)N[C@@H](CC(N)=O)C(=O)N[C@H](C(=O)N[C@@H](C)C(=O)N1CCC[C@H]1C(=O)N1CCC[C@H]1C(=O)N[C@H](C(=O)N[C@@H](CC(N)=O)C(=O)N[C@H](C(=O)NCC(=O)N[C@@H](CO)C(=O)N[C@@H](CC(N)=O)C(=O)NCC(=O)N1C[C@H](O)C[C@H]1C(N)=O)C(C)C)[C@@H](C)O)C(C)C` [compound 79] ({C20 diacid-γGlu}-KCNTATCTVQRLAHQIAQFSDKDKDNVAPPTNVGSNG[Hyp]-NH2; disulfide 2-7), in that order: 0.014 nM and more than 5000 nM.
For `CC[C@H](C)[C@H](NC(=O)[C@H](CCC(N)=O)NC(=O)[C@H](Cc1c[nH]cn1)NC(=O)[C@H](C)NC(=O)[C@H](CC(C)C)NC(=O)[C@H](CCCNC(=N)N)NC(=O)[C@H](C)NC(=O)[C@@H](NC(=O)[C@@H](NC(=O)[C@@H]1CSSC[C@H](NC(=O)[C@H](CCCCN)NC(=O)CC[C@H](NC(=O)CCCCCCCCCCCCCCCCCCC(=O)O)C(=O)O)C(=O)N[C@@H](CC(N)=O)C(=O)N[C@@H]([C@@H](C)O)C(=O)N[C@@H](C)C(=O)N[C@@H]([C@@H](C)O)C(=O)N1)[C@@H](C)O)C(C)C)C(=O)N[C@@H](CC(N)=O)C(=O)N[C@@H](CCC(N)=O)C(=O)N[C@@H](Cc1ccccc1)C(=O)N[C@H](C(=O)N[C@@H](CC(=O)O)C(=O)N[C@@H](CCCCN)C(=O)N[C@@H](CC(=O)O)C(=O)N[C@@H](CCCCN)C(=O)N[C@@H](CC(=O)O)C(=O)N[C@@H](CC(N)=O)C(=O)N[C@H](C(=O)N[C@@H](C)C(=O)N1CCC[C@H]1C(=O)N1CCC[C@H]1C(=O)N[C@H](C(=O)N[C@@H](CC(N)=O)C(=O)N[C@H](C(=O)NCC(=O)N[C@@H](CO)C(=O)N[C@@H](CC(N)=O)C(=O)NCC(=O)N1C[C@H](O)C[C@H]1C(N)=O)C(C)C)[C@@H](C)O)C(C)C)[C@@H](C)O` [compound 86] ({C20 diacid-γGlu}-KCNTATCTVARLAHQINQFTDKDKDNVAPPTNVGSNG[Hyp]-NH2; disulfide 2-7), in that order: 0.015 nM and more than 5000 nM.
In the same order, the values of `CC[C@H](C)[C@H](NC(=O)[C@H](CCC(N)=O)NC(=O)[C@H](Cc1c[nH]cn1)NC(=O)[C@H](C)NC(=O)[C@H](CC(C)C)NC(=O)[C@H](CCCNC(=N)N)NC(=O)[C@H](CCC(N)=O)NC(=O)[C@@H](NC(=O)[C@@H](NC(=O)[C@@H]1CSSC[C@H](NC(=O)[C@H](CCCCN)NC(=O)CC[C@H](NC(=O)CCCCCCCCCCCCCCCCCCC(=O)O)C(=O)O)C(=O)N[C@@H](CC(N)=O)C(=O)N[C@@H]([C@@H](C)O)C(=O)N[C@@H](C)C(=O)N[C@@H]([C@@H](C)O)C(=O)N1)[C@@H](C)O)C(C)C)C(=O)N[C@@H](C)C(=O)N[C@@H](CCC(N)=O)C(=O)N[C@@H](Cc1ccccc1)C(=O)N[C@H](C(=O)N[C@@H](CC(=O)O)C(=O)N[C@@H](CCCCN)C(=O)N[C@@H](CC(N)=O)C(=O)N[C@@H](CCCCN)C(=O)N[C@@H](CC(=O)O)C(=O)N[C@@H](CC(N)=O)C(=O)N[C@H](C(=O)N[C@@H](C)C(=O)N1CCC[C@H]1C(=O)N1CCC[C@H]1C(=O)N[C@H](C(=O)N[C@@H](CC(N)=O)C(=O)N[C@H](C(=O)NCC(=O)N[C@@H](CO)C(=O)N[C@@H](CC(N)=O)C(=O)NCC(=O)N1C[C@H](O)C[C@H]1C(N)=O)C(C)C)[C@@H](C)O)C(C)C)[C@@H](C)O` [compound 87] ({C20 diacid-γGlu}-KCNTATCTVQRLAHQIAQFTDKNKDNVAPPTNVGSNG[Hyp]-NH2; disulfide 2-7) are 0.015 nM and more than 5000 nM.
For `CC[C@H](C)[C@H](NC(=O)[C@H](CCC(N)=O)NC(=O)[C@H](Cc1c[nH]cn1)NC(=O)[C@H](C)NC(=O)[C@H](CC(C)C)NC(=O)[C@H](CCCNC(=N)N)NC(=O)[C@H](CCC(N)=O)NC(=O)[C@@H](NC(=O)[C@@H](NC(=O)[C@@H]1CSSC[C@H](NC(=O)[C@H](CCCCN)NC(=O)CC[C@H](NC(=O)CCCCCCCCCCCCCCCCCCC(=O)O)C(=O)O)C(=O)N[C@@H](CC(N)=O)C(=O)N[C@@H]([C@@H](C)O)C(=O)N[C@@H](CO)C(=O)N[C@@H]([C@@H](C)O)C(=O)N1)[C@@H](C)O)C(C)C)C(=O)N[C@@H](C)C(=O)N[C@@H](CCC(N)=O)C(=O)N[C@@H](Cc1ccccc1)C(=O)N[C@H](C(=O)N[C@@H](CC(=O)O)C(=O)N[C@@H](CCCCN)C(=O)N[C@@H](CC(=O)O)C(=O)N[C@@H](CCCCN)C(=O)N[C@@H](CC(=O)O)C(=O)N1CCC[C@H]1C(=O)N[C@H](C(=O)N[C@@H](C)C(=O)N1CCC[C@H]1C(=O)N1CCC[C@H]1C(=O)N[C@H](C(=O)N[C@@H](CC(N)=O)C(=O)N[C@H](C(=O)NCC(=O)N[C@@H](CO)C(=O)N[C@@H](CC(N)=O)C(=O)NCC(=O)N1C[C@H](O)C[C@H]1C(N)=O)C(C)C)[C@@H](C)O)C(C)C)[C@@H](C)O` [compound 88] ({C20 diacid-γGlu}-KCNTSTCTVQRLAHQIAQFTDKDKDPVAPPTNVGSNG[Hyp]-NH2; disulfide 2-7), the figures for the EC50 in assay [1] and in assay [2] were 0.015 nM and more than 5000 nM, respectively.
In the same order, the values of `CC[C@H](C)[C@H](NC(=O)[C@H](CCC(N)=O)NC(=O)[C@H](CCC(=O)O)NC(=O)[C@H](C)NC(=O)[C@H](CC(C)C)NC(=O)[C@H](CCCNC(=N)N)NC(=O)[C@H](CCC(N)=O)NC(=O)[C@@H](NC(=O)[C@@H](NC(=O)[C@@H]1CSSC[C@H](NC(=O)[C@@H](N)CCCCN)C(=O)N[C@@H](CC(N)=O)C(=O)N[C@@H]([C@@H](C)O)C(=O)N[C@@H](C)C(=O)N[C@@H]([C@@H](C)O)C(=O)N1)[C@@H](C)O)C(C)C)C(=O)N[C@@H](Cc1ccc(O)cc1)C(=O)N[C@@H](CCC(N)=O)C(=O)N[C@@H](Cc1ccccc1)C(=O)N[C@@H](CCCCNC(=O)COCCOCCNC(=O)COCCOCCNC(=O)CC[C@H](NC(=O)CCCCCCCCCCCCCCCCCCC(=O)O)C(=O)O)C(=O)N[C@@H](CC(=O)O)C(=O)N[C@@H](CCCCN)C(=O)N[C@@H](CC(=O)O)C(=O)N[C@@H](CCCCN)C(=O)N[C@@H](CC(=O)O)C(=O)N[C@@H](CC(N)=O)C(=O)N[C@H](C(=O)N[C@@H](C)C(=O)N1CCC[C@H]1C(=O)N1CCC[C@H]1C(=O)N[C@H](C(=O)N[C@@H](CC(N)=O)C(=O)N[C@H](C(=O)NCC(=O)N[C@@H](CO)C(=O)N[C@@H](CC(N)=O)C(=O)NCC(=O)N1C[C@H](O)C[C@H]1C(N)=O)C(C)C)[C@@H](C)O)C(C)C` [compound 89] (H-KCNTATCTVQRLAEQIYQFK([AEEA-AEEA-γGlu-C20 diacid])DKDKDNVAPPTNVGSNG[Hyp]-NH2; disulfide 2-7; N-terminus assumed) are 0.015 nM and more than 5000 nM.
